Converted amounts (≈) assume the structure as drawn. Structures can show the parent of a compound that is named as a salt. Each block holds one molecule with its values, some of them ahead of it.
Key:
Format in all cases: physicochemical
[1] = Hygroscopicity assessment by dynamic vapor sorption (DVS); details: for Hygroscopicity class according to the definition of hygroscopicity: Chinese Pharmacopoeia 2015, 25° C., 80% RH; for Weight gain under 80% RH: DVS, 25° C.
Procedure: Dynamic Vapor Sorption (DVS) is measured via an SMS (Surface Measurement Systems Ltd.) intrinsic DVS. Typical Parameters for DVS test are as follows:
Gas and flow rate: N2, 200 mL/min
RH range: 0% RH to 95% RH […]
Dynamic vapor sorption (DVS) was applied to test hygroscopicity of Form CS1 of ozanimod hydrochloride with about 10 mg of samples.
Description and definition of hygroscopicity (Chinese Pharmacopoeia 2015 edition appendix Drug hygroscopic test guidelines, test at 25° C.+/−1° C., 80% RH). • deliquescent: Sufficient water is absorbed to form a liquid; • very hygroscopic: Increase in mass is equal to or greater than 15 percent; • hygroscopic: Increase in mass is less than 15 percent and equal to or greater than 2 percent; • slightly hygroscopic: Increase in mass is less than 2 percent and equal to or greater than 0.2 percent. • non hygroscopic or almost non hygroscopic: Increase in mass is less than 0.2 percent.

[2] = Stability assessment in constant temperature and humidity chambers (HPLC purity, XRPD crystalline form); details: for 1 week purity % / 2 week purity % / 4 week purity %: HPLC, hydrochloride; for Change of the crystalline form: XRPD; for Stability, overall conclusion of the storage test: after storage under all conditions tested for the form
Procedure: (§1) Three solid samples of Form CS1 were placed in constant temperature and humidity chambers at 25° C./60% RH, 40° C./75% RH and 60° C./75% RH for 4 weeks. XRPD was used to test the crystalline form at the end of week 4. HPLC was used to measure the chemical purity at the end of week 1, 2, and 4. The XRPD comparison result is shown in FIG. 31 (from top to bottom: XRPD pattern of Form CS1 before and after being stored under 25° C./60% RH, 40° C./75% RH and 60° C./75% RH for 4 weeks), and the results are shown in Table 20.
as §1, with “Four” for “Three”, “CS2” for “CS1”, “weeks and 80° C. for 1 week.” for “weeks.”, “32” for “31”, “weeks and 80° C. for 1 week),” for “weeks),”, “21.” for “20.”
as §1, with “Form CS3” for “Form CS1”, “comparison pattern” for “comparison result”, “FIG. 33” for “FIG. 31”, “Table 22.” for “Table 20.”
as §1, with “Form CS5” for “Form CS1”, “for 2” for “for 4”, “[…].” for “4. HPLC was used to measure the chemical purity at the end of week 1, 2, and 4.”, “comparison pattern” for “comparison result”, “FIG. 34” for “FIG. 31”, “Table 23.” for “Table 20.”
Two samples of Form CS6 were placed in constant temperature and humidity chambers at 25° C./60% RH and 40° C./75% RH for 4 weeks. XRPD was used to test the crystalline form at the end of week 4. HPLC was used to measure the chemical purity at the end of week 1, 2, and 4.The XRPD comparison result is shown in FIG. 35 (from top to bottom: XRPD pattern of Form CS6 before and after being stored under 25° C./60% RH and 40° C./75% RH for 4 weeks), and the results are shown in Table 24.
Four samples of Form CS1 of ozanimod hydrochloride were placed in constant temperature and humidity chambers at 25° C./60% RH, 40° C./75% RH and 60° C./75% RH for 4 weeks and 80° C. for 1 week. XRPD was used to test the crystalline form at the end of week 4. HPLC was used to measure the chemical purity at the end of week 1, 2, and 4. The XRPD comparison pattern is shown in FIG. 36 (from top to bottom: XRPD pattern of ozanimod hydrochloride Form CS1 before and after being stored under 25° C./60% RH, 40° C./75% RH and 60° C./75% RH for 4 weeks and 80° C. for 1 week), and the results are shown in Table 25.

[3] = Particle size distribution test (laser particle size analyzer, wet process); details: for MV, average particle size calculated by volume: dispersion medium Isopar G; for D10 / D50 (median diameter) / D90: volume distribution, Isopar G
Procedure: The particle size distribution test in the present disclosure is acquired by the S3500 laser particle size analyzer of Microtrac. Microtrac S3500 is equipped with the SDC (Sample Delivery Controller). The test is carried out by wet process, and the dispersion medium is Isopar G The parameters are as follow:
Certain amount of samples of Form CS1, Form CS2, Form CS3, Form CS5, Form CS6 of ozanimod and Form CS1 of ozanimod hydrochloride were taken for particle size distribution test.

[4] = Solubility assessment of saturated solutions in SGF, FeSSIF and water, measured by HPLC
Procedure: Form CS1 and Form CS1 of ozanimod hydrochloride were suspended into SGF (Simulated gastric fluids) and FeSSIF (Fed state simulated intestinal fluids, pH=5.0) to obtain saturated solutions. After being equilibrated for 1 h, 4 h and 24 h, concentrations of the saturated solutions were measured by HPLC.
Form CS3 and Form CS5 were suspended into SGF (Simulated gastric fluids) and water, and Form CS2 was suspended into FeSSIF (Fed state simulated intestinal fluids) to obtain saturated solutions. After being equilibrated for 1 h, 4 h and 24 h, concentrations of the saturated solutions were measured by HPLC.

[5] = Mechanical stability, manual grinding for 5 minutes in mortar, XRPD; details: ground manually for 5 minutes, XRPD before and after
Procedure: Solid samples of Form CS3, Form CS5, Form CS6 of ozanimod and Form CS1 of ozanimod hydrochloride were ground manually for 5 minutes in mortar.

Weight gain under 80% RH ([1]; hydrochloride): 0.55% | Weight gain under 80% RH ([1]; listed as ozanimod hydrochloride Form CS1, hydrochloride): 0.55% | 1 week purity % ([2]; 25° C./60% RH, 1 week): 99.18% | 2 week purity % ([2]; 25° C./60% RH, 2 weeks): 99.13% | 4 week purity % ([2]; 25° C./60% RH, 4 weeks): 99.22% | Change of the crystalline form ([2]; 25° C./60% RH, 4 weeks): No change | 1 week purity % ([2]; 40° C./75% RH, 1 week): 99.15% | 2 week purity % ([2]; 40° C./75% RH, 2 weeks): 99.12% | 4 week purity % ([2]; 40° C./75% RH, 4 weeks): 99.24% | Change of the crystalline form ([2]; 40° C./75% RH, 4 weeks): No change | 1 week purity % ([2]; 60° C./75% RH, 1 week): 99.25% | 2 week purity % ([2]; 60° C./75% RH, 2 weeks): 99.25% | 4 week purity % ([2]; 60° C./75% RH, 4 weeks): 99.36% | Change of the crystalline form ([2]; 60° C./75% RH, 4 weeks): No change | 1 week purity % ([2]; 80° C., 1 week): 99.34% | Change of the crystalline form ([2]; 80° C., 1 week): No change | Stability, overall conclusion of the storage test [2]: good stability | MV, average particle size calculated by volume ([3]; hydrochloride): 200.7 μm | D10 ([3]; hydrochloride): 20.84 μm | D50 (median diameter) ([3]; hydrochloride): 180.8 μm | D90 ([3]; hydrochloride): 397.7 μm | Solubility ([4]; FeSSIF (pH=5.0), 4 h, hydrochloride): 1500 µg/mL | Form change under mechanical stress [5]: No form change
SMILES: CC(C)Oc1ccc(-c2nc(-c3cccc4c3CC[C@@H]4NCCO)no2)cc1C#N [Form CS1 of ozanimod hydrochloride, ozanimod hydrochloride]
Hygroscopicity class according to the definition of hygroscopicity [1]: slightly hygroscopic (Increase in mass is less than 2 percent and equal to or greater than 0.2 percent)

Weight gain under 80% RH [1]: 0.23% | Change of the crystalline form ([2]; 25° C./60% RH, 2 weeks): No change | Change of the crystalline form ([2]; 40° C./75% RH, 2 weeks): No change | Change of the crystalline form ([2]; 60° C./75% RH, 2 weeks): No change | Stability, overall conclusion of the storage test [2]: good stability | MV, average particle size calculated by volume [3]: 68.84 μm | D10 [3]: 6.55 μm | D50 (median diameter) [3]: 41.10 μm | D90 [3]: 173.3 μm | Solubility ([4]; H2O, 24 h): 270 µg/mL (≈ 668 µM) | Solubility ([4]; SGF, 4 h): 1000 µg/mL (≈ 2470 µM) | Solubility ([4]; SGF, 24 h): 770 µg/mL (≈ 1900 µM) | solubility at 4 h ([4]; water, thermodynamic from solid, H2O, 4 h): 260 µg/mL (≈ 643 µM) | Form change under mechanical stress [5]: No form change
SMILES: CC(C)Oc1ccc(-c2nc(-c3cccc4c3CC[C@@H]4NCCO)no2)cc1C#N [Form CS5, ozanimod]
Hygroscopicity class according to the definition of hygroscopicity [1]: slightly hygroscopic (Increase in mass is less than 2 percent and equal to or greater than 0.2 percent)
